Test results taken from US12097174B2, “Methods and agents that enhance myogenic progenitor cell engraftment” (President and Fellows of Harvard College, priority 2018, dated 2024).

How the values were obtained:
mouse satellite cells [1] = experiment: Mouse satellite cell transplantation into pre-injured TA muscle, engraftment by bioluminescence imaging (BLI); assay type: in vivo; conditions: for BLI radiance (mean±SEM): 10 μM NFA (n=13) or 5 μM LPA (n=17) prior to transplant, vehicle 8,214,000±1,462,346; for engraftment efficiency of mouse satellite cells: 4 h at 37° C. with 10 μM NFA or 5 μM LPA, 5000 cells per recipient
Protocol: Specifically, BLI radiance (mean±SEM) for muscle precursors treated with 10 μM NFA or 5 μM LPA prior to transplant were 27,236,923±6,849,754 p/s (n=13) and 25,637,059±4,410,195 p/s (n=17), respectively, in comparison to 8,214,000±1,462,346 p/s (n=15) vehicle-treated cells (1-way ANOVA between vehicle-treated group and either NFA or LPA treated group, p≤0.01) (FIGS. 8A-8C).
To this end, mouse satellite cells were again sorted from double-transgenic (luc+GFP+) mice and exposed them to NFA, LPA, or vehicle (DMSO) under the optimal dose conditions established using the fish model (see above; 4 h. treatment at 37° C. with 10 μM of NFA or 5 μM of LPA), prior to transplant. Compound-treated cells were then recovered and, after washing out the media containing the compounds (NFA, LPA or DMSO), counted and transplanted at 5000 cells per recipient into the pre-injured TA muscles of non-transgenic FVB hosts. The kinetics of muscle engraftment were subsequently assessed by weekly BLI imaging of transplanted limbs. Similar to the fish experiments, both NFA and LPA enhanced the engraftment efficiency of mouse satellite cells in these in vivo transplantation assays (FIGS. 14C and 14D), indicating conserved effects of these pro-myogenic compounds on mammalian muscle precursor cells.
Mouse satellite cells were isolated as previously described (Maesner et al., 2016; Sherwood et al., 2004; Xu et al., 2013). 25 μl (0.03 mg/ml) of cardiotoxin (CDTX) (Latoxan) was injected 24 h prior to transplantation into the TA muscle of recipient mice (FVB/NJ). Luc-GFP tagged satellite cells were isolated and plated on a collagen/laminin-coated plate and treated with NFA (10 μM), LPA (5 μM) or DMSO, as the vehicle control, in culture media for 4 hours at 37° C. The culture media contained 78% F10 (GIBCO), 20% horse serum (Atlanta Biologics), 1% penicillin-streptomycin (Invitrogen), 1% GlutaMAX (Invitrogen), and 5 ng/ml bFGF (Sigma). After 4 hours, cells were washed with DPBS, harvested, and counted, followed by transplantation of 5000 satellite cells intramuscularly into the CDTX pre-injured TA of FVB recipients.
Mice were anesthetized with isoflurane and weighed. 150 mg/kg of luciferin (Goldbio) was administered by IP injection. BLI was acquired using IVIS Spectrum every 2 minutes, at F-stop=1.0 at 5 min after luciferin injection. The acquired images were analyzed and the highest captured radiance in the region of interest (ROI) was measured.

mouse satellite cells [2] = experiment: RNA sequencing of treated mouse satellite cells; assay type: cell-based
Source text: To gain insight into the mechanisms through which LPA and NFA treatment might enhance donor cell engraftment in vertebrate muscle, RNA sequencing analysis were next performed in treated ZeMPCs and in mouse satellite cells. Comparison of differential gene expression in NFA-treated or LPA-treated cells to vehicle-treated cells indicated upregulation of calcium-dependent genes in response to these compounds in both ZeMPCs (FIG. 21) and mouse satellite cells (FIGS. 15A and 15B).
Isolated mouse muscle satellite cells and ZeMPCs were used to prepare RNA after in vitro chemical treatment. Total RNA was isolated by the micro RNeasy kit (QIAGEN). cDNA was prepared using SMART Seq v4 Ultra Low RNA-Seq kit for 48 reactions (Takara) and a Nextera kit was used for library construction. Sequencing data FASTQ files for samples were processed in tophat-cufflinks workflow in a Linux server operating system to output gene-level abundance estimates and statistical inference as gene-level raw counts. Those raw counts for samples were input into the cuffdiff for differential gene expression analysis. The assigned GEO accession number for the RNA sequencing data is GSE143801.

Row | Compound | BLI radiance (mean±SEM) (mouse satellite cells [1]) | engraftment efficiency of mouse satellite cells (mouse satellite cells [1]) | expression of calcium-dependent genes vs vehicle-treated cells (mouse satellite cells [2]) | expression of myoblast fusion related genes, including myomaker (Tmem8c) and Ccl8 (mouse satellite cells [2])
1 | O=C(O)c1cccnc1Nc1cccc(C(F)(F)F)c1 [NFA, niflumic acid] | 27,236,923±6,849,754 p/s | enhanced | upregulation | –
2 | lysophosphatidic acid [LPA] | 25,637,059±4,410,195 p/s | enhanced | upregulation | upregulated
